Source: patent US7781580B2, “Stilbene derivatives as new cancer therapeutic agents” (Virginia Commonwealth University, priority 2007, dated 2010)
Where two headings read alike, the source gives them in different places.

Assays:
[1] = water solubility of stilbene and carbamate prodrug (salts and free base); assay type: physicochemical
Procedure: Stilbene prodrugs may be made by attaching to a stilbene derivative of interest (e.g. a stilbene derivative with anti-tumor activity), chemical groups (or moieties) that render the stilbene derivative more water soluble than before such a modification is carried out. By “water soluble” we mean that more than 20 mg compound can be fully dissolved in 1 mL of water. Further, the chemical groups that are attached to the stilbene derivative to make the derivative water soluble are labile (i.e. removable) in that, upon exposure to in vitro or in vivo hydrolyzing conditions, the chemical groups are removed or dissociated from the stilbene derivative by hydrolysis, releasing the active, anti-tumor form of the stilbene derivative. The chemical groups which are attached may themselves be biologically active, and are, at least, not biologically injurious to cells or mammals. […] As illustrated, morfolinoethyl-urea, morfolinoethyl-carbamate and triethylene glycol (TEG) groups (5a, 5b, 5c, respectively) may be used for this purpose.

[2] = system: UCI101 ovarian cancer cells; test: Alamar Blue cell growth inhibition, UCI101; assay type: cell-based; details: UCI101, 48 hours
Procedure: Cell growth was measured by AlamarBlue™ staining and the percentage of cell growth inhibition was calculated and compared with the control cells that were treated with 0.1% DMSO, the vehicles for the stilbene compounds.
Cells were treated with the tested drug for 2 days before analysis of cell growth by Alamar Blue™ staining. Cells treated with 0.1% DMSO were used as control and set as 100%.
(a) In vitro sensitivity of UCI101 cells toward three potential stilbene prodrugs, 5a-c, was tested in 96-well plates using Alamar Blue™ assays to determine cell growth inhibition. […] (b) 5b induces cell cycle change and apoptosis in UCI101 cells. Cells were incubated with 5b at 1, 3, 10 μM for 16 hours followed by PI staining and flow cytometry analysis. A subG0/1 population, representing apoptotic cells, appeared along with a decrease of the G1/G2 ratio after cells were treated with 3 μM 5b. Higher concentration (10 μM) of 5b completely killed cells, as was the case with stilbene 4a at […]. (c) Cells treated with stilbene 4a and 5b were stained with phospho-histone 3B, a mitotic marker. The positive signals of phospho-histone 3B were shown in green and nuclei were stained with DAPI in blue. […] (d) In vivo efficacy of 5b compared with stilbene 4a. Nude mice were injected with UCI101 ovarian cancer cells and treated with 7 doses of 5b,c or stilbene 4a every 2-3 days. Tumor volume was calculated and plotted against days.
(§1) Various cancer cell lines were grown in 96-well plates for drug sensitivity assays. Once cells achieved 50% confluence, the incubation media was changed to the same cell growth media with different concentrations of the tested compounds or vehicle alone. Cells were then incubated for 48 hours before the cell growth inhibition study. To determine the degree of cell growth inhibition, 1/10 volume of Alamar Blue™ solution was added to each well and optical density (OD) at 570 and 600 nm was determined. The percentage of growth inhibition was calculated according to the manufacturer's formula as follows: The percentage of growth is [(117216×A570)−(80586×A600)]/[(117216×A^o570)−(80586×A^o600)]×100. In this formula, A570 is the absorbance of the treated samples at 570 nm; A600 is the absorbance of the treated samples at 600 nm; A^o570 is the absorbance of the […] samples at 570 nm; and A^o600 is the absorbance of the untreated samples at 600 nm. The two constants, 117216 and 80586, are the extinction coefficients of Alamar Blue™ at 570 and 600 nm respectively. Each concentration was repeated in triplicate to minimize the error.
(§2) We first tested the cytotoxic effect of various stilbene derivatives for their in vitro efficacy of suppressing tumor cell proliferation. Cells were first plated in 96-well plates at 50% confluence and treated with 0, 0.01, 0.03, 0.1, 0.3, 1.0, 3.0, 10 μM concentrations of stilbene derivatives for 48 hours in triplicate. Alamar Blue™ reagent was added into each well at 1/10 volume and incubated for 2 hours before quantification of the absorbance at 570 and 600 nm.

tumor cell proliferation = test: suppression of tumor cell proliferation, cell line not stated; assay type: cell-based; details: read-out: IC50, suppressing tumor cell proliferation
Procedure: as §1

[3] = system: SNU423 hepatocellular carcinoma cells; test: Alamar Blue cell growth inhibition, SNU423; assay type: cell-based
In short: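 Cells at 50% confluence were treated for 48 h in triplicate with 0-10 μM compound or 0.1% DMSO vehicle. Alamar Blue was added at 1/10 volume for 2 h, and absorbance at 570 and 600 nm gave % growth via the manufacturer's extinction-coefficient formula relative to vehicle controls.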

[4] = system: MDA-MB231 breast cancer cells; test: Alamar Blue cell growth inhibition, MDA-MB231; assay type: cell-based
Procedure: Cell growth was measured by Alamar Blue™ staining and the percentage of cell growth inhibition was calculated and compared with control cells that were treated with 0.1% DMSO, the vehicles for the stilbene compounds.
as §1, §2

[5] = system: MiaPaCa2 pancreatic cancer cells; test: Alamar Blue cell growth inhibition, MiaPaCa2; assay type: cell-based
Procedure: as §1, §2

[6] = system: SKOV3 ovarian cancer cells; test: Alamar Blue cell growth inhibition, SKOV3; assay type: cell-based
Procedure: Cells were incubated with various concentrations of the compounds for 48 hours. Cell growth was measured by Alamar Blue™ staining and the percentage of cell growth inhibition was calculated and compared with the control cells that were treated with 0.1% DMSO, the vehicle for the stilbene compounds.
as §1

MDA-MB231 cells = test: immunofluorescent staining of tubulin, MDA-MB231; assay type: cell-based; details: CA4 10 nM, stilbene 4a 100 nM, vincristine 100 nM, 5b 3 μM; 16 hours
From the text: Nuclei were stained with 4′,6-diamidino-2-phenylindole (DAPI). Control cells show the reticular pattern of the microtubule network.

UCI101 cells = test: immunofluorescent staining of tubulin, UCI101; assay type: cell-based; details: CA4 10 nM, stilbene 4a 100 nM, 5b 3 μM; 16 hours
From the text: Nuclei were stained with DAPI.

[7] = system: UCI101 ovarian cancer cells; test: Western blot of signal transduction events, UCI101; assay type: cell-based; details: 36 hours
Procedure: All these agents are microtubule interfering agents but with different binding sites. Cells were harvested at 0, 4, 8, 16 and 36 hours after drug treatment for Western blot analysis. […] Phosphorylation of both Cdc25C and Cdc2 disappeared after 16 hours and slightly recovered at 36 hours. […] Akt phosphorylation decreased after 16 hours of treatment.
In order to understand the mechanism of resistance of stilbenes, various signal transduction pathways were investigated to examine how cells respond to stilbene treatment. UCI101 ovarian cancer cells were treated with stilbenes 4a, 4c or paclitaxel (Taxol) at 0.1 μM for 0, 4, 8, 16 and 36 hours. Cells were harvested for Western blotting. Changes in the kinases involved in cell cycle progression from G2-M transition were first determined in Cdc2, Cdc25c, and mitotic spindle check point regulator BubR1. […] 36 hours after treatment, rephosphorylation of Cdc2 was observed. […] The higher molecular weight isomer of Cdc25c, the mitotic form, increased at 16 and 36 hours. […] A similar study was then performed with other microtubule interfering agents such as combretastatin A4, 13a and vincristine for comparison. A similar trend was observed among these three microtubule interfering agents (FIG. 18).

[8] = system: MDA-MB231 breast cancer cells; test: cell cycle analysis, MDA-MB231; assay type: cell-based; details: 16 hours
Procedure: (§3) Cells were treated with various concentrations of stilbene 4a or CA4 for 16 hours followed by PI staining and FACscan analysis. […] A unique feature of stilbene 4a was noted when cells were treated with 30 nM.
(§4) Due to the structural similarity between stilbene 4a and CA4, we investigated the difference in the biological activity of these two compounds in MDA-MB231 breast cancer cells and their Chk2−/− derivatives. […] MDA-MB231 cells were treated with 10 nM stilbene 4a or 1 nM CA4. […] However, a difference in cell cycle change was observed following treatment with 30 nM of stilbene 4a versus 3 nM of CA4. […] This was also the case for cells treated with 100 nM stilbene 4a. A significant subG1/0 population was also noted. […] One possible effect could be a DNA damage response, which is a common mechanism of multiple chemotherapeutic agents but not one of pure microtubule-interfering agents such a paclitaxel or vincristine. […] We then obtained conditional Chk1−/− and Chk2−/− cells, which were derived from the same MDA-MB231 cells for the same flow cytometry analysis. […] In contrast, Chk2−/− cells were more sensitive to stilbene 4a. […] This mechanism is not obvious in higher drug concentrations at which the G2 arrest from microtubule interference is dominant. Therefore, in addition to their microtubule interfering effect, stilbenes have another mechanism to induce cell death. Thus, the use of a Chk2 inhibitor in combination with stilbenes may be a viable approach to enhancing the beneficial therapeutic effects of stilbenes.

Chk2−/− cells = test: cell cycle analysis, Chk2-/- MDA-MB231 derivative; assay type: cell-based; details: 16 hours
Procedure: as §3, §4

Chk1−/− cells = test: cell cycle analysis, Chk1-/- MDA-MB231 derivative; assay type: cell-based
Procedure: as §4

[9] = clinical studies; cited from earlier work

| IC50 ([3]; Homo sapiens, SNU-423, 48 h, read-out: IC50 (50% growth inhibition), SNU423, 48 hours) [nM] | IC50 (tumor cell proliferation; cell line not stated) [nM] | Compound | water solubility (in words) [1] | relative potency / activity [2] | IC50 (tumor cell proliferation) [nM] | effective concentration ([4]; MDA-MB231, 48 hours) | effective concentration ([5]; MiaPaCa2, 48 hours) | relative potency ([3]; SNU423) | effective concentration, blocking cell proliferation ([3]; SNU423, 48 hours) [µM] | relative potency ([4]; MDA-MB231) | relative potency ([5]; MiaPaCa2) | effective concentration ([6]; SKOV) [nM] | effective / active concentration ([6]; SKOV3, 48 hours) [µM] | microtubule pattern (MDA-MB231 cells) | microtubule pattern (UCI101 cells) | phosphorylation of Chk1 [7] | cell cycle change at 10 nM stilbene 4a or 1 nM CA4 [8] | change of effective concentration versus MDA-MB231 (Chk2−/− cells) | sensitivity versus MDA-MB231 (Chk1−/− cells) | dose above which cardiac toxicity, neurotoxicity and tumor pain were observed [9] |
| --- | --- | --- | --- | --- | --- | --- | --- | --- | --- | --- | --- | --- | --- | --- | --- | --- | --- | --- | --- | --- |
| – | – | COc1cc(/C=C\c2ccc(OC)cc2N)cc(OC)c1.O=C(O)C(=O)O [4b, (Z)2-[2-(3,5-Dimethoxy-phenyl)-vinyl]-5-methoxy-phenylamine oxalate] | enhanced by the formation of an oxalate salt | less active than stilbene 4a | 80 | – | – | – | – | – | – | – | – | – | – | – | – | – | – | – |
| 300 to 1000 | 1000 | COc1cc(O)cc(/C=C\c2ccc(OC)c(N)c2)c1.Cl [10d, (Z)-3-[2-(3-Amino-4-methoxy-phenyl)-vinyl]-5-methoxy-phenol, hydrochloride] | – | less active than stilbene 4a | – | above 0.3 μM | above 0.3 μM | – | – | – | – | – | – | – | – | – | – | – | – | – |
| – | – | COc1ccc(/C=C\c2cc(OC)c(OC)c(OC)c2)cc1O [combretastatin A4, (Z)-2-Methoxy-5-[2-(3,4,5-trimethoxy-phenyl)-vinyl]-phenol, reference compound] | – | most active compound | – | – | – | most potent compound | 0.003 | most effective | most effective | 10 | 0.01 | did not completely disrupt microtubule formation | complete disruption of microtubules | do not cause more phosphorylation of Chk1 | No change was observed | decreased by three fold | more resistant | higher than 68 mg/m^2 |
